Laboratory results as given in patent US20210290597A1, “METHOD OF TREATING A CONDITION ASSOCIATED WITH NEURODEGENERATION USING INHIBITORS OF OAT3” (Neuropore Therapies, Inc., priority 2018, published 2021).

Experiments:
[1] = target: T1, P-gp (MDR1) (Homo sapiens, UniProt P08183); experiment: In vitro ion transport assay 1, P-gp; type: cell-based; conditions: probe substrate 100 nM [3H]-quinidine
T1 construct: expressed in transfected cells
Protocol: Compound 1 was studied in the concentration range of 0.1-100 μM for its potency against transport mediated by various transporter proteins. [table]

[2] = tested on: total alpha-synuclein; experiment: Total alpha-synuclein IHC, L61 ASYN transgenic mice, 1 month study; type: in vivo; conditions: for reduction of total alpha-synuclein level in cortex compared to vehicle control: L61 ASYN transgenic mice
Protocol: Multiple in vivo administration studies of Compound 1 were carried out in the Line 61 (L61) mThy1-alpha-synuclein transgenic mouse model of Parkinson's disease (PD). The mThy1-alpha-synuclein transgenic mouse model overexpresses wild-type human ASYN under the Thy-1 promoter (commonly referred to as Line 61 transgenic mice; Rockenstein et al., 2002). This transgenic mouse develops extensive accumulation of alpha-synuclein (ASYN) in areas relevant to PD (Rockenstein et al., 2002; Chesselet et al., 2012; Games et al., 2013), neurodegeneration including dopaminergic neurodegeneration, reduced dopamine (DA) and TH loss in the striatum (Masliah et al., 2000; Lam et al., 2011), and motor deficits (Fleming et al., 2004). Male transgenic and non-transgenic littermates (3-3.5 mo) were used for all in vivo studies presented here.
Alpha-synuclein (ASYN) is a neuronal protein whose dysregulation has been implicated in the pathogenesis of PD. The effects of Compound 1 on alpha-synuclein aggregation were assessed in both L61 ASYN transgenic and non-transgenic mice in a 1 month administration study. L61 ASYN transgenic mice (36 total mice, n=8-11 mice per treatment group) were injected (i.p.) daily with 1, 5, or 10 mg/kg of Compound 1 or a vehicle control (5% DMSO+20% Cremphor EL+0.9% normal saline) for 1 month. Non-transgenic mice (18 total mice, n=8-11 mice per treatment group) were used as a control and were injected daily (i.p.) with 10 mg/kg of Compound 1 or a vehicle control (5% DMSO+20% Cremphor EL+0.9% normal saline) per day for 1 month. At the end of one month, the mice were sacrificed, and immunohistochemical (IHC) detection of total alpha-synuclein deposits, insoluble alpha-synuclein deposits (PK+resistant), microtubule-associated protein 1A/1B-light chain 3 (LC3), and monomeric alpha-synuclein levels were assessed in the harvested brain tissues.
The quantification and IHC staining of total alpha-synuclein were performed using known techniques (Rockenstein et al., J Neurosci Res. 2002, 68(5):568-78; Tanji et al., Acta Neuropathol. 2010, 120, 145-154; Nuber et al., Brain. 2013 February; 136(Pt 2):412-32).

[3] = tested on: Translocator Protein (18 kDa) (TSPO); experiment: TSPO immunofluorescence in cortex, L61 ASYN transgenic mice, 3 month study; type: in vivo; conditions: 5 and 10 mg/kg i.p. daily, 3 months
Protocol: Briefly, Compound 1 was injected into L61 ASYN transgenic mice and non-transgenic control mice (i.p., once daily) at doses of 5 and 10 mg/kg for 3 months (79 total mice, n=14-17 mice per treatment group). The vehicle control consisted of a solution containing 5% DMSO+20% Cremphor EL+0.9% normal saline. The baseline grip strength of mice was evaluated prior to starting treatments for the 3 month study, and then re-evaluated following 70 days of treatment with vehicle or Compound 1 (5 or 10 mg/kg, i.p. injection daily).
Neuroinflammation is associated with increased expression of the 18-kDa translocator protein (TSPO), which is a marker for inflammation and is present on the mitochondria of activated microglia, astroglia and macrophages (Crawshaw and Robertson 2017). The effects of Compound 1 on the levels of Translocator Protein (18 kDa) (TSPO) were assessed in both L61 ASYN transgenic and non-transgenic mice in the aforementioned 3 month administration study. At the end of the study, the mice were sacrificed, and immunofluoresence (IF) detection of TSPO were assessed in the harvested brain tissues.
The harvested brain tissues were fixed (drop fixed in 4% paraformaldehyde), sectioned using a vibratome, and representative sections were assessed for TSPO with standard immunofluorescence (IF) staining. […]

[4] = tested on: dopaminergic (DAT) transporter; experiment: DAT immunolabeling in striatum, L61 ASYN transgenic mice; type: in vivo; conditions: 3 months
Protocol: The harvested brain tissues were drop fixed using 4% PFA and sectioned on a vibratome, and representative sections corresponding to the striatum and cerebellum were assessed for DAT with IHC staining.
Immunolabeling studies of DAT were conducted using a monoclonal antibody (1:500; MAB369; Millipore, Temecula, Calif.) and a biotinylated secondary antibody (1:100; BA4000, Vector Labs) and analysis was performed on blindcoded sections from Line 61 transgenic and non-transgenic mice. Slides were digitized using a high resolution automated Nanozoomer slide scanner (Hamamatsu Corp.). Digitized images were analyzed using Halo (Indica Labs) image analysis software package by placing an ROI frame within the dorsal striatum and another within a separate reference brain region (for normalization of DAT signal). A thresholding algorithm was defined and then applied equally to all images to determine the average optical density of DAT immunolabeling across each ROI The results of the analysis were then exported for graphing and statistical analysis and the striatal DAT:cortical (reference region) DAT optical densities ratio was calculated for each subject.
Quantification of DAT density was carried out by calculating the immunofluorescence in striatal sections against that in cerebellum sections to derive a striatal-to-reference ratio.

T1 sequence (P08183 whole entry, species assumed): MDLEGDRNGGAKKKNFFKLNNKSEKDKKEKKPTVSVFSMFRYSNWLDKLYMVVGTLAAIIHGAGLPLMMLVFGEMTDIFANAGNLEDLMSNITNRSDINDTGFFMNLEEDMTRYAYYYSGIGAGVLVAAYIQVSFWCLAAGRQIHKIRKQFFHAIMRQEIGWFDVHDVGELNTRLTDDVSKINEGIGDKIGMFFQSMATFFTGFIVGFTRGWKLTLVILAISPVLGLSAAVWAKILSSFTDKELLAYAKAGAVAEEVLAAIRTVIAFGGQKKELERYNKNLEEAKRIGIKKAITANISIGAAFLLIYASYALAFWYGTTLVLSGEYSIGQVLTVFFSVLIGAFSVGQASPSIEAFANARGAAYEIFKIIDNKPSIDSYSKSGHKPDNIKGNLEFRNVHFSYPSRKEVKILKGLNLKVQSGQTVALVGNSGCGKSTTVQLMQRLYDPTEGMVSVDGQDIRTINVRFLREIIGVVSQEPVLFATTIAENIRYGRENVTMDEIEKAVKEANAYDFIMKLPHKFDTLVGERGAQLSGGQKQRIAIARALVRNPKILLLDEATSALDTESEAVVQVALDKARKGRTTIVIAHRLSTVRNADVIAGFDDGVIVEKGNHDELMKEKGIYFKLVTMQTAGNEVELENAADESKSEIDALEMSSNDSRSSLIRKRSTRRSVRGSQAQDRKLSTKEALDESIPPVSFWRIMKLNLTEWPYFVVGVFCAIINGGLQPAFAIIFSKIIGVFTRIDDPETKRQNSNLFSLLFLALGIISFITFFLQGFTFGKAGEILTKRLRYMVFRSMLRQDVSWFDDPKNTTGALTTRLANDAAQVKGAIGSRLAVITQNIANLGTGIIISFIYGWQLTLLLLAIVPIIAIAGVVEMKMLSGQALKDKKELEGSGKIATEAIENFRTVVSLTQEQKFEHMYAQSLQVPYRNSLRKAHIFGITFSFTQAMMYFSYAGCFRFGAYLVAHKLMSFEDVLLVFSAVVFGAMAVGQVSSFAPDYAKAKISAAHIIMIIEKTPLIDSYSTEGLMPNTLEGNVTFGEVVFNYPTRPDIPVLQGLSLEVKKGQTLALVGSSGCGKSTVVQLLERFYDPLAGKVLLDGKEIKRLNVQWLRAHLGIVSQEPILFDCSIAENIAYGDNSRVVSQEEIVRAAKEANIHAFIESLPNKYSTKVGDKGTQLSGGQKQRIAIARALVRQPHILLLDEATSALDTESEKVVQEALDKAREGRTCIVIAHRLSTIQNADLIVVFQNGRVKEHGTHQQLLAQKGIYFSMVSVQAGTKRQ

## O=S(=O)(c1ccc(-n2cn[nH]c2=S)cc1)c1ccc(Cl)c(C(F)(F)F)c1 [Compound 1, 4-(4-((4-chloro-3-(trifluoromethyl)phenyl)sulfonyl)phenyl)-2,4-dihydro-3H-1,2,4-triazole-3-thione]
[1]
  IC50: 37.1 µM
[2]; 1 mg/kg daily i.p.
  reduction of total alpha-synuclein level in cortex compared to vehicle control: 13%
[2]; 5 mg/kg daily i.p.
  reduction of total alpha-synuclein level in cortex compared to vehicle control: 32%
[2]; 10 mg/kg daily i.p.
  reduction of total alpha-synuclein level in cortex compared to vehicle control: 38%
[2]; 1, 5 or 10 mg/kg per day i.p., statistically significant
  total ASYN in the neuropil of cortex, hippocampus and striatum vs vehicle: reduced total ASYN
[3]
  levels of TSPO in cortex vs vehicle control: significantly decreased
[4]; 5 mg/kg or 10 mg/kg daily
  striatal levels of DAT, staining intensity in representative images vs vehicle-treated L61 mice: restoring striatal levels of DAT
[4]; 10 mg/kg daily
  DAT striatal-to-reference ratio, quantification (FIG. 24): reduces the GFAP levels in a statistically significant manner
